Test results as given in patent US10183080B2, “Use of single dendritic wedge cell penetrating peptides to facilitate cellular delivery of nanoparticles and nanoparticles carrying cargos” (The Government of the United States of America, as …, priority 2016, dated 2019).
Where no end group is shown, it is not given here.

Tests used:
[1] = Dynamic light scattering of QD-peptide conjugates; format: physicochemical; conditions: DLS; 5 peptides/QD; 50 nM QD, 0.1×PBS pH 7.4, 25° C.
From the text: Dynamic Light Scattering (DLS) analysis was next undertaken to measure the QD-peptide conjugates hydrodynamic diameter (HD) and diffusion coefficients. Based on the values estimated above, assembly ratios of 5 peptides/QD were utilized during these measurements. The QD-(Arg9)1 conjugate's HD increases from the QD only value of 24.3±1 nm to ˜26.7±1.3 nm. HD values for the QD-(Arg9)2-8 conjugates are essentially the same within experimental error with an average value of 30.5±0.5 nm while the QD-(Arg9)16 increases to ˜33 nm. The diffusion coefficients follow the same trend but in an inverse manner from ˜17 to 13 μm^2/s. […] They support the notion that the peptides are attached via the His6 region to the QD surface and that the polyproline regions span through the PEG layer displaying the poly(Arg) motifs on the QD's surface through the surrounding PEG layer as intended in the synthetic design.
Dynamic light scattering (DLS) measurements were carried out using a ZetaSizer NanoSeries equipped with a HeNe laser source (λ=633 nm, Malvern Instruments Ltd, Worcestershire, UK) and analyzed using Dispersion Technology Software (DTS, Malvern Instruments Ltd). 50 nM concentration solutions of QDs were loaded into disposable cells, and data were collected at 25° C. All samples were prepared in 0.1×PBS buffer pH 7.4. For each sample, the autocorrelation function was the average of five runs of 10 s each and then repeated from three to six times. CONTIN analysis was used to determine the number versus hydrodynamic size profiles for the dispersions studied.

[2] = system: COS-1 cells; assay: Cellular uptake of QD-dendritic peptide bioconjugates (fluorescence/confocal imaging); format: cell-based, African green monkey; conditions: 4 h incubation, 100 nM QD, 5 peptides/QD
Protocol: COS-1 cells were incubated for 4 h with 150 μL of a 100 nM solution of QDs assembled with the (Arg9)1-16 peptide series at ratio of 5/QD. This ratio was chosen since it represents a value where stochastic assembly events are minimized and correlates with ratios used in the DLS and SPR analysis. Cells were then incubated with the Transferrin Alexa647 endosomal marker for another hour prior to washing and processing which included counterstaining with the DAPI nuclear dye as described in the Methods section. FIGS. 4A through 4G present representative micrographs collected from these samples as projections of confocal stacks and side profiles of the cells. […] The bright yellow PL also observed in these images reflects colocalization of the green QDs with the red Alexa647 marker and confirms that the QDs are located in the endolysosomal system with a primary perinuclear localization as expected following endosomal vesicular uptake.
Kinetics of Poly(Arg)1-16-mediated QD uptake into cells were next evaluated. For this, 150 μL of 100 nM QDs assembled with a ratio of 5 peptides/QD were exposed to COS-1 cells for fixed time periods of 0.5, 1, 4, 8 and 24 h. […] Some delivery trends are visible from a comparison across these images. […] The amount and brightness of QD labeling in the endosomes directly correlates with the increase in the dendritic poly(Arg) display on the QD surface. Additionally, as the cellular exposure time increases, the amount of QD uptake increases proportionally as well. The measured PL intensity per cell from these representative images is plotted in FIG. 5B highlighting the general trends. Although some variability was noted (most likely due to the inherent noisy background found in such gross cellular studies), replicate samples reproduced the same generalized trends of increased poly(Arg)n dendritic branching and increased cellular exposure time leading to increased bioconjugate uptake and PL intensity. […]

[3] = system: COS-1 cells; assay: Dendritic peptide-mediated delivery of cargo-decorated QDs; format: cell-based, African green monkey
From the text: Lastly, as proof of concept, tests were made of the ability of the dendritic peptides to facilitate QD delivery, when the QDs are decorated with additional “cargo.” For this, following initial attachment of the (Arg9)n peptides to the QDs, they were further assembled with one of three prototypical cargos, a dye-labeled peptide, a drug-labeled peptide and a fluorescent protein. FIG. 8B presents a series of representative images that highlight some of the results achieved using 520 nm emitting QDs functionalized with a zwitterionic compact ligand 4; this ligand was used as it still allows larger proteins access to the QD surface for (His)n-binding unlike PEG which can sterically preclude them. […] Analogous to the data shown above, peptides with higher (Arg9)n dendrimeric branching, use of higher ratios of peptide/QD, and longer delivery times each served to facilitate higher levels of QD-cargo conjugate uptake into the cells (data not shown).
CdSe/ZnS core/shell QDs with emission maxima centered at 550 nm were synthesized as described. These were rendered hydrophilic through cap exchange of the native hydrophobic ligands with polyethylene glycol-(average MW 750 Da) appended dihydrolipoic acid ligands terminating in methoxy groups (DHLA-PEG750-OMe, see FIG. 1B) as described. For cargo delivery experiments, 520 nm emitting QDs functionalized with a zwitterionic compact ligand 4 (CL4) were utilized.
Aliquots of African green monkey kidney fibroblast-like COS-1 cells (CRL-1650) from American Type Culture Collection (ATCC, Manassas, Va., USA) were cultured in Dulbecco's Modified Eagle's Medium (DMEM, ATCC) supplemented with 10% (v/v) heat-inactivated fetal bovine serum (ATCC) and 1% antibiotic/antimycotic at 37° C. in a humidified atmosphere containing 95% air/5% CO2. Aliquots were allowed to adhere to the culture flask and reach 80% confluency, usually within 3 to 4 days. The monolayer was harvested by washing once with PBS, once with calcium/magnesium-free PBS, and incubating the monolayer with trypsin until detachment from the culture flask (usually within 5 min). Cells were seeded at 1-2×10^4 cells/well in Lab-Tek 8-well chambered No. 1 borosilicate cover glass system (Nalge Nunc, Rochester N.Y., USA) that had been previously coated for at least 4 h with fibronectin (5 μg/mL, Life Technologies). Cells were allowed to adhere to the bottom of the wells by further culture overnight at 37° C. in 95% air/5% CO2 air. Following overnight culture, media was removed and washed with 100 μL of 25 mM HEPES supplemented with 1 mM sodium pyruvate. […]
For cargo delivery experiments, mCherry fluorescent protein was prepared as described in the literature. […] Cytotoxicity assays were determined using the Vybrant® MTT Cell Proliferation Assay Kit. […]

| Substance | HD (hydrodynamic diameter) [1] [nm] | QD uptake (QD PL in confocal micrographs) [2] | comparative performance in cargo delivery experiments ([3]; low valencies, short delivery times (data not shown)) | delivery of QDs decorated with ~25 doxorubicin labeled peptides ([3]; ratio 0.5 peptide/QD, 1 h exposure, cargo MW ~50 kDa, 520 nm CL4 QDs) | delivery of ~30 mCherry per QD ([3]; ratio 1 peptide/QD, 1 h exposure, cargo MW ~850 kDa, 520 nm CL4 QDs) | delivery of QDs decorated with ~30 Cy5 labeled peptides ([3]; ratio 1 peptide/QD, 2 h exposure, cargo MW ~100 kDa/QD, 520 nm CL4 QDs) |
| --- | --- | --- | --- | --- | --- | --- |
| [RRRRRRRRRFG]4-x-K′K′WP9G2H6 [(Arg9)4] | 30.7 ± 2.0 |  |  |  |  |  |
| [RRRRRRRRRFG]16-x-K′K′K′K′WP9G2H6 [(Arg9)16] | 32.7 ± 4.9 | most intense QD PL |  |  |  |  |
| [(RRRRRRRRRFG)-x-hex-P9G]2-K′WGH6 (peptide RRRRRRRRRFGPPPPPPPPPG; chain KWGHHHHHH) [(Arg9)2, generation 1 dendritic wedge peptide displaying two Arg9 motifs] | 30 ± 1.4 |  |  |  |  |  |
| [RRRRRRRRRFG]8-x-K′K′K′WP9G2H6 [(Arg9)8] | 30.9 ± 1.4 | most intense QD PL | worked best | allowed delivery | allowed delivery | facilitated delivery |
| [RRRRRRRRRFG]-x-hex-hex-WP9G2H6 (RRRRRRRRRFGWPPPPPPPPPGGHHHHHH; not fully specified (residue 11); also: oxime bond (x) between G11 and hexamine spacers) [(Arg9)1, functions as control] | 26.7 ± 1.3 | no appreciable QD uptake |  |  |  |  |
